Here are results for eight molecules from US9926324B2, “Heteroaromatic compounds as PI3 kinase modulators and methods of use” (Calitor Sciences, LLC, priority 2012, dated 2018).

In general, IC50 refers to the concentration that inhibits the measured activity by half. One may read the CLint scaled as the rate of metabolic loss divided by the concentration. The AUC(0-t) is the area under the concentration-time curve up to a stated or last time point. A high value points to more exposure.

A short description of data set [1]: Pharmacokinetic profiles in rats after intravenous and oral administration. Type of data set: in vivo. The conditions noted are these: for F: oral dose generally 5 or 10 mg/kg; for AUC(0-t) / half-life / Vd: rat, plasma; for Vd: read-out: Vss. On the procedure:
The compounds disclosed herein are assessed in pharmacokinetic studies in mice, rats, dogs or monkeys. The compounds are administered as a water solution, 2% HPMC+1% TWEEN® 80 in water solution, 5% DMSO+5% solutol in saline, 4% MC suspension or capsule. For the intravenous administration, the animals are generally given at 1 or 2 mg/kg dose. For the oral (p.o.) dosing, mice and rats are generally given 5 or 10 mg/kg dose, and dogs and monkeys are generally given 10 mg/kg dose. The blood samples (0.3 mL) are drawn at 0.25, 0.5, 1.0, 2.0, 3.0, 4.0, 6.0, 8.0, 12 and 24 h time points or 0.083, 0.25, 0.5, 1.0, 2.0, 4.0, 6.0, 8.0 and 24 h time points and centrifuged at 3,000 or 4000 rpm for 2 to 10 min. The plasma solutions are collected, stored at −20° C. or −70° C. until analyzed by LC/MS/MS as described above.

The target of a further data set is T1, PI3K p110α/p85α (h) (Homo sapiens, UniProt P42336).
T1 construct: purchased Millipore UK Ltd (assay service)
Put plainly: PI3K p110α/p85α (h) non-radioactive HTRF assay. The format is biochemical. On the procedure:
PI3K p110α/p85α (h) is incubated in assay buffer containing 10 μM phosphatidylinositol 4,5-bisphosphate and MgATP (concentration as required). The reaction is initiated by the addition of the ATP solution. After incubation for 30 minutes at room temperature, the reaction is stopped by the addition of stop solution containing EDTA and biotinylated phosphatidylinositol-3,4,5-trisphosphate. Finally, detection buffer is added, which contains europium-labelled anti-GST monoclonal antibody, GST-tagged GRP1 PH domain and streptavidin allophycocyanin. The plate is then read in timeresolved fluorescence mode and the homogenous time-resolved fluorescence (HTRF) signal is determined according to the formula HTRF=10000×(Em665 nm/Em620 nm).
The kinase assays described herein were performed at Millipore UK Ltd, Dundee Technology Park, Dundee DD2 1SW, UK.
A general note: In TR-FRET formats the signal depends on donor and acceptor labels being close together.

Data set [2] in a line: Compound stability in human liver microsomes. The conditions noted are these: for half-life at 5 μM / CLint scaled at 5 μM: pH 7.4; for half-life at 5 μM: read-out: Human T1/2; for CLint scaled at 5 μM: human liver microsomes, in vivo CLint extrapolated. Type of data set: in vitro ADME. On the procedure:
(§1) Human or rat liver microsomes incubations were conducted in duplicate in polypropylene tubes. The typical incubation mixtures consisted of human or rat liver microsomes (0.5 mg protein/mL), compounds of interest (5 μM) and NADPH (1.0 mM) in a total volume of 200 μL potassium phosphate buffer (PBS, 100 mM, pH=7.4). Compounds were dissolved in DMSO and diluted with PBS such that the final concentration of DMSO was 0.05%. The enzymatic reactions were commenced with the addition of […] after a 3-min preincubation and incubated in a water bath open to the air at 37° C. Reactions were terminated at various time points (0, 5, 10, 15, 30, 60 min) by adding equal volume of ice-cold acetonitrile. The samples were stored at −80° C. until LC/MS/MS assays.
(§2) The concentrations of compounds in the incubation mixtures of human or rat liver microsomes were determined by a LC/MS/MS method. The ranges of the linearity in the concentration range were determined for each tested compounds.
(§3) A parallel incubation was performed using denatured microsomes as the negative control, and reactions were terminated at various time points (0, 15, 60 min) after incubation at 37° C.
(§4) Dextromethorphan (70 μM) was selected as the positive control, and reactions were terminated at various time points (0, 5, 10, 15, 30, 60 min) after incubation at 37° C. Both positive and negative control samples were included in each assay to ensure the integrity of the microsomal incubation system.
(§5) The concentrations of compounds in human or rat liver microsome incubations were plotted as a percentage of the relevant zero time point control for each reaction. The in vivo CLint were extrapolated (ref: Naritomi Y, Terashita S, Kimura S, Suzuki A, Kagayama A, Sugiyama Y. Prediction of human hepatic clearance from in vivo animal experiments and in vitro metabolic studies with liver microsomes from animals and humans. Drug Metabolism and Disposition 2001, 29: 1316-1324).

The nature of data set [3]: Compound stability in rat liver microsomes. Type of data set: in vitro ADME. Conditions: for half-life at 5 μM / CLint scaled at 5 μM: pH 7.4; for half-life at 5 μM: read-out: Rat T1/2; for CLint scaled at 5 μM: rat liver microsomes, in vivo CLint extrapolated. On the procedure:
as §1, §2, §3, §4, §5

In another data set the test system is U87MG glioblastoma cells. Put plainly: Tumor xenograft model (U87MG), tumor growth inhibition. The format is in vivo, athymic nude mice. Conditions: 12 days. On the procedure: The efficacy of compounds disclosed herein was evaluated in a standard murine model of tumorigenesis. Human tumor cells (U87MG glioblastoma cells from ATCC) were expended in culture, harvested, and injected subcutaneously onto the rear flank of 6-7 week old female athymic nude mice (BALB/cA nu/nu, Hunan SLAC Laboratory Animal, Co.) (n=6-10 for vehicle group and for each dosing group). When tumors reached a volume of 100-250 mm^3, animals were randomly divided into vehicle control (for example, 5% DMSO+70% Captisol® (30%), 7% HCl (pH1), 18% Captisol® (30%); or 7% DMSO, 7% HCl (pH1), 70% Captisol® (30%), 16% Captisol® (30%), or the like) and compound groups. Subsequent administration of compound by oral gavage begins anywhere from day 0 to day 15 post tumor cell challenge and generally continues with once a day for the duration of the experiment.
Progression of tumor growth is assessed by tumor volumes and recorded as a function of time. The long (L) and short (W) axes of the subcutaneous tumors were measured with calipers twice weekly, and the tumor volume (TV) calculated as (L×W^2)/2). TGI was calculated from the difference between the median tumor volumes of vehicle-treated and drug-treated mice, expressed as a percentage of the median tumor volume of the vehicle-treated control group, by the following relation:
Initial statistical analysis is done by repeated measures analysis of variance (RMANOVA), followed by Scheffe psot hoc testing for multiple comparisons. Vehicle alone (5% DMSO+70% Captisol® (30%), 7% HCl (pH1), 18% Captisol® (30%); or 7% DMSO, 7% HCl (pH1), 70% Captisol® (30%), 16% Captisol® (30%), or the like) is the negative control.

[4] abbreviates: human liver microsomes 0.5 mg protein/mL, compound 5 μM, NADPH 1.0 mM, 37° C.
Where [5] appears, read: rat liver microsomes 0.5 mg protein/mL, compound 5 μM, NADPH 1.0 mM, 37° C.

Read-outs that look alike come from different tables or passages of the source.

T1 sequence (P42336 whole entry): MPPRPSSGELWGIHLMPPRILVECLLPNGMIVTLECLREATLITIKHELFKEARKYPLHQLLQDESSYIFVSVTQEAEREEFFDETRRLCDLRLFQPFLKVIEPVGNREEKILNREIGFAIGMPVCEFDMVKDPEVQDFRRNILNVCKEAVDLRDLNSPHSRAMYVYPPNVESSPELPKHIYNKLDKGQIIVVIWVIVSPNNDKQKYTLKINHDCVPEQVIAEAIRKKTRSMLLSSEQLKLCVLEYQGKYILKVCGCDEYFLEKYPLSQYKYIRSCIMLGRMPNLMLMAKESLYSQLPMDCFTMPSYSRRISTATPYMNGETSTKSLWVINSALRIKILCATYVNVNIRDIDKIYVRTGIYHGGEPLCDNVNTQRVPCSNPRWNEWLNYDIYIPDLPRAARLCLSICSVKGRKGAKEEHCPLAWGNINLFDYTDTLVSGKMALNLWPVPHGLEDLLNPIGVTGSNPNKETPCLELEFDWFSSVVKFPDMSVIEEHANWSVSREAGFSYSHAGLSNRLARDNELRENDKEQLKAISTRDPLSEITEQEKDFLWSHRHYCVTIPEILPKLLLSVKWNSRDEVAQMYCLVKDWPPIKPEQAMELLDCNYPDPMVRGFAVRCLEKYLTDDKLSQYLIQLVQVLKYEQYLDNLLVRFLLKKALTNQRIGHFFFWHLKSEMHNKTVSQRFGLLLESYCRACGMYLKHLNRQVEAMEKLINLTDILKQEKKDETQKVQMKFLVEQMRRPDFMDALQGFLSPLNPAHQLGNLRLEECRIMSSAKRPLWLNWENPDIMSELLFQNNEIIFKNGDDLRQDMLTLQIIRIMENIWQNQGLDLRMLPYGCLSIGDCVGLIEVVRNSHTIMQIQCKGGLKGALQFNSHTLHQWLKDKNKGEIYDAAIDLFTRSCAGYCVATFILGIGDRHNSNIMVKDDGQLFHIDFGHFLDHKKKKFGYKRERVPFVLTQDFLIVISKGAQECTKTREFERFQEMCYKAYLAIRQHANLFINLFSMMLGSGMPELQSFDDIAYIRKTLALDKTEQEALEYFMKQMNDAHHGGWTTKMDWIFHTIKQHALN
T1 sequence (P27986 whole entry partner): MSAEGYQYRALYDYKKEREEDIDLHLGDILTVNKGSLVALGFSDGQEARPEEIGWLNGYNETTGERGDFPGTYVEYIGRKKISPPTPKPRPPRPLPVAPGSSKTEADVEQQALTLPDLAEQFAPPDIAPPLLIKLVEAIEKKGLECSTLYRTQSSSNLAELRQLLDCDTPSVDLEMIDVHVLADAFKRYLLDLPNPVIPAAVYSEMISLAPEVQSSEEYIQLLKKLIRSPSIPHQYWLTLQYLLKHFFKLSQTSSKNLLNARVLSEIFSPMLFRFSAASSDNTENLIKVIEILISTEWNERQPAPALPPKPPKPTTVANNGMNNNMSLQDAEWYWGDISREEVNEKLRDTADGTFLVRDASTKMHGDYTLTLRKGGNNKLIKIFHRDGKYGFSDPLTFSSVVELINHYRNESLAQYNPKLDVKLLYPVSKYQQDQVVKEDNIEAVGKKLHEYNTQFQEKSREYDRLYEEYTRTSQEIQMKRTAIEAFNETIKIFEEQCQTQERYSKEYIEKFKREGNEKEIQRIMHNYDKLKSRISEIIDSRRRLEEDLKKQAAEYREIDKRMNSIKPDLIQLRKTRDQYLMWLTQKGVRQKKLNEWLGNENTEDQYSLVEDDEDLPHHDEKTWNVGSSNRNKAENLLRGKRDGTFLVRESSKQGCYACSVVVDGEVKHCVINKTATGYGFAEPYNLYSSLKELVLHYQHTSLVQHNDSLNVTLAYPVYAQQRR

On to “4-fluoro N (5 (3 (3 hydroxy-3-methylbut-1-yn-1-yl)-[1,2,4]-triazolo[4,3-b]pyridazin-6-yl)-2-methoxypyridin-3-yl)benzenesulfonamide [Ex. 12]”, for which the F in data set [1] (iv dose 2 mg/kg) was 1.3%. In data set [1] (iv dosing 2 mg/kg), this molecule gave an AUClast of 411 ng·h/mL, a Cl/F of 77.8 mL/min/kg, a T1/2 of 4.71 h and a Vss of 18.42 L/kg. For the same molecule, the IC50 on PI3K p110α/p85α (h) is 32 nM.

As for `CC#Cc1cnc2ccc(-c3cnc(OC)c(NS(=O)(=O)c4ccc(F)cc4)c3)nn12` [Ex. 5, 4-fluoro-N-(2-methoxy-5-(3-(prop-1-yn-1-yl)imidazo[1,2-b]pyridazin-6-yl)pyridin-3-yl)benzenesulfonamide], the half-life at 5 μM in data set [2] (setting [4]) stood at 1.14 h. In addition, the CLint scaled at 5 μM in data set [2] is 25.4 mL/min/kg. The half-life at 5 μM in data set [3] (setting [5]) was 0.595 h. Also, the CLint scaled at 5 μM in data set [3] was 69.5 mL/min/kg. This molecule also returned a F in data set [1] (iv dose 1 mg/kg) of 95.6%. In addition, in data set [1] (iv dosing 1 mg/kg), the Cl/F worked out at 6.17 mL/min/kg, the area under the curve AUC(0-t) was determined as 2550 ng·h/mL, the half-life is 8.74 h and the Vd worked out at 2.29 L/kg. Also, on PI3K p110α/p85α (h), the IC50 was 17 nM.

On to `COc1ncc(-c2ccc3ncc(C#N)n3n2)cc1NS(=O)(=O)c1ccc(F)cc1` [Ex. 6, N-(5-(3-cyanoimidazo[1,2-b]pyridazin-6-yl)-2-methoxypyridin-3-yl)-4-fluorobenzenesulfonamide], for which, in data set [1] (iv dose 1 mg/kg), the F was 123.7%. Also, in data set [1] (iv dosing 1 mg/kg), the Cl/F stood at 5.5 mL/min/kg, the AUC(0-t) stood at 2660 ng·h/mL, the half-life is 3.7 h and the Vd is 1.25 L/kg. Also, at PI3K p110α/p85α (h), the IC50 came to 4 nM. In addition, the “TGI % U87MG” value in the data set with U87MG glioblastoma cells (0.3 mg/kg oral gavage) is on record as 14%. For the same molecule, in the data set on U87MG glioblastoma cells (1 mg/kg oral gavage), the “TGI % U87MG” value is recorded as 41%. For the same molecule, the “TGI % U87MG” value in the data set on U87MG glioblastoma cells (3 mg/kg oral gavage) was 71%.

In the case of `COc1ncc(-c2ccc3ncc(C#CC(C)O)n3n2)cc1NS(=O)(=O)c1ccc(F)cc1F` (stereo not drawn) [Ex. 10, 2,4-difluoro-N-(5-(3-(3-hydroxybut-1-yn-1-yl)imidazo[1,2-b]pyridazin-6-yl)-2-methoxypyridin-3-yl)benzenesulfonamide], the half-life at 5 μM came out at 8.79 h in data set [2] (setting [4]) and 4.66 h in data set [3] (setting [5]). Moreover, the CLint scaled at 5 μM in data set [2] was 3.3 mL/min/kg; in data set [3], 8.89 mL/min/kg. In data set [1] (iv dose 2 mg/kg), the F stood at 79.88%. In data set [1] (iv dosing 2 mg/kg), the Cl/F was found to be 0.5 mL/min/kg. The molecule also gave an AUC(0-t) in data set [1] (iv dosing 2 mg/kg) of 67000 ng·h/mL. For the same molecule, in data set [1] (iv dosing 2 mg/kg), the half-life was 4.27 h. In addition, the Vd in data set [1] (iv dosing 2 mg/kg) stood at 0.14 L/kg. Besides, the IC50 on PI3K p110α/p85α (h) amounted to 3 nM. Besides, the “TGI % U87MG” value was 32% with U87MG glioblastoma cells (1 mg/kg oral gavage), 44% in the data set on U87MG glioblastoma cells (3 mg/kg oral gavage) and 65% in the data set with U87MG glioblastoma cells (10 mg/kg oral gavage).

`COc1ncc(-c2ccc3ncc(C#CC(C)(C)O)n3n2)cc1NS(=O)(=O)c1ccc(F)cc1F` [Ex. 11, 2,4-difluoro N (5 (3 (3 hydroxy-3-methylbut-1-yn-1-yl)imidazo[1,2-b]pyridazin-6-yl)-2-methoxypyridin-3-yl)benzenesulfonamide] registered a F in data set [1] (iv dose 1 mg/kg) of 115.8%. In data set [1] (iv dosing 1 mg/kg), the Cl/F was determined as 0.33 mL/min/kg, the AUC(0-t) is 40400 ng·h/mL, the half-life was 4.92 h and the Vd came to 0.15 L/kg. Also, the IC50 on PI3K p110α/p85α (h) is 8 nM.

Turning to `CC#Cc1cnc2ccc(-c3cnc(OC)c(NS(=O)(=O)c4ccc(F)cc4F)c3)nn12` [Ex. 13, 2,4-difluoro-N-(2-methoxy-5-(3-(prop-1-yn-1-yl)imidazo[1,2-b]pyridazin-6-yl)pyridin-3-yl)benzenesulfonamide], in data set [2] (setting [4]), the half-life at 5 μM came to 18.8 h. In addition, in data set [2], the CLint scaled at 5 μM was 1.54 mL/min/kg. Also, the half-life at 5 μM in data set [3] (setting [5]) is 1.59 h. The CLint scaled at 5 μM in data set [3] is 26.1 mL/min/kg. In data set [1] (iv dose 1 mg/kg), the F amounted to 95.8%. Moreover, in data set [1] (iv dosing 1 mg/kg), the Cl/F stood at 1.5 mL/min/kg, the area under the curve AUC(0-t) amounted to 11300 ng·h/mL, the half-life was 3.08 h and the Vd worked out at 0.32 L/kg.

As for `COc1ncc(-c2ccc3ncc(C#CC(C)(C)O)n3c2)cc1NS(=O)(=O)c1ccc(F)cc1F` [Ex. 17, 2,4-difluoro-N-(5-(3-(3-hydroxy-3-methylbut-1-yn-1-yl)imidazo[1,2-a]pyridin-6-yl)-2-methoxypyridin-3-yl)benzenesulfonamide], in data set [2] (setting [4]), the half-life at 5 μM was 8.53 h. The CLint scaled at 5 μM in data set [2] is 3.4 mL/min/kg. Also, the half-life at 5 μM in data set [3] (setting [5]) came to 4.66 h. Also, the CLint scaled at 5 μM in data set [3] was 8.87 mL/min/kg. Besides, the F in data set [1] (iv dose 1 mg/kg) is reported as 123.1%. For the same molecule, in data set [1] (iv dosing 1 mg/kg), the Cl/F was determined as 0.5 mL/min/kg, the AUC(0-t) came out at 38700 ng·h/mL, the half-life was 5.3 h and the Vd came out at 0.17 L/kg.

Take `COc1ncc(-c2ccc3nnc(C#CC(C)O)n3c2)cc1NS(=O)(=O)c1ccc(F)cc1F` (stereo not drawn) [Ex. 23, 2,4-difluoro N (5 (3 (3 hydroxybut-1-yn-1-yl)-[1,2,4]-triazolo[4,3-a]pyridin-6-yl)-2-methoxypyridin-3-yl)benzenesulfonamide]: in data set [2] (setting [4]), the “Human T1/2” value is “∞”. Also, in data set [3] (setting [5]), the “Rat T1/2” value was “∞”. Besides, the F in data set [1] (iv dose 1 mg/kg) worked out at 5.9%. In addition, in data set [1] (iv dosing 1 mg/kg), the Cl/F was found to be 30.2 mL/min/kg, the AUC(0-t) is 561 ng·h/mL, the half-life was 0.15 h and the Vd was 0.19 L/kg.
